# Laboratory results: PubChem BioAssay (NCI)
# Values joined by “and” are separate entries in the source; they are usually repeats but may differ in a detail not shown here. Equal entries are not always repeated.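 Where inhibition never reached the appropriate level, the endpoint shown equals the highest concentration tested. Otherwise, values were interpolated linearly from a five-concentration, 48-hour dose response in 96-well plates. Abbreviation: GI50, concentration required for 50% inhibition of growth. The concentration for full growth arrest is given as TGI.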
# Tested on: U251 CNS
# Test: growth of human tumour cells (NCI), 48 h
Structure (SMILES),TGI,GI50
CCN(CCO)CC1CCCC2CCCCC21 (configuration not stated),> 100 µM,
CC[C@@]1(O)C[C@H](OC2CC(N(C)C)C(O)C(C)O2)c2c(O)c3c(c(O)c2[C@H]1OC1CC(N(C)C)C(O)C(C)O1)C(=O)c1cccc(O)c1C3=O (some centres not stated),,< 0.01 µM
COC1(OC)CCC2C1C1CCC(OC)(OC)C21 (configuration not stated),> 50 µM,
NNC(=O)Nc1cccnc1,> 100 µM,
CC/C=C\CCC/C=C1/C(=O)C=C[C@@H]1C/C=C\CCCC(=O)OC,14.5 µM,4.22 µM
COc1ccc(-c2nc3sccn3c2/C(N)=N/C(=N)N)cc1OC,> 100 µM,34.1 µM
CCCCCCCCCCCOc1ccc(C(=O)C(=O)c2ccc(OCCCCCCCCCCC)c(OCCCCCCCCCCC)c2)cc1OCCCCCCCCCCC,> 100 µM,
Cn1cnc([N+](=O)[O-])c1Sc1nnc(-c2cccnc2)n1C,> 100 µM,
CCOC(=O)C1=C(C)NC(=S)NC1c1ccccc1 (configuration not stated),> 56.2 µM,
COC1=CC(=O)c2nc(-c3ccncc3)[nH]c2C1=O,> 100 µM,> 100 µM
O=C(/C=C/c1ccccc1)NC1C=Nc2ccc(Cl)cc2NC1=O (configuration not stated),79.9 µM,
COC1CCC2C(NS(=O)(=O)c3ccc(C)cc3)CCCC2O1 (configuration not stated) (tested in a mixture with another compound),> 34.5 µM,
CC(C)C/C(CC(=O)CCC(=O)Nc1ccccc1[N+](=O)[O-])=N\NC(=O)c1cc2ccccc2cc1O,> 100 µM,
O=C1/C(=C/c2cccc([N+](=O)[O-])c2)COc2ccc(O)cc21,2.9 µM,1.56 µM
O=C(O)c1ccccc1[Se][Se]c1ccccc1C(=O)O,> 100 µM,
CCCCC(=O)OCC(=O)[C@]1(O)Cc2c(O)c3c(c(O)c2[C@@H](OC2CC(NC(=O)C(F)(F)F)C(O)C(C)O2)C1)C(=O)c1c(OC)cccc1C3=O (some centres not stated),2.81 µM,
O=C(O)CCc1coc2ccc(O)cc12,> 100 µM,

Structure (SMILES),TGI,GI50
C[C@]12CC[C@H](O)CC1=CC[C@@H]1C2CC[C@]2(C)C(=O)N(N)C(=O)CC12 (some centres not stated),> 100 µM,
Clc1cc2nsnc2c(Cl)n1,40.1 µM,
Cc1cccc2c(=O)cc(-c3ccccc3)[nH]c12,> 100 µM,
COC(CN1C(=O)c2cccc3cccc(c23)C1=O)OC,> 100 µM,
Cc1nc2ccccc2c(=O)n1-c1ccccc1I,> 100 µM,
CC(=O)NNc1nc(C)c(C(=O)NNC(=O)C(=O)Nc2ccc(Cl)cc2)s1,> 100 µM,
Cc1ccc(C(=O)/C(=C/c2ccc([N+](=O)[O-])cc2)SCc2ccc(Cl)cc2)cc1,2.4 µM,1.11 µM
O=C(N/C(=C\c1ccc(/C=C(\NC(=O)c2ccccc2)c2nc3cc([N+](=O)[O-])ccc3[nH]2)cc1)c1nc2cc([N+](=O)[O-])ccc2[nH]1)c1ccccc1,> 100 µM,
O=C1C2C(C(=O)N1OS(=O)(=O)c1ccccc1)N(Cc1ccccc1)C(=O)N2Cc1ccccc1 (configuration not stated),> 100 µM,
Cc1cc(C)nc(NS(=O)(=O)c2ccc(NC(=O)c3ccc(Cl)c4c(Nc5ccc(S(=O)(=O)Nc6nc(C)cc(C)n6)cc5)c5ccccc5nc34)cc2)n1,21.9 µM,
COc1ccc2c3c1C(=O)CCCC3CO2 (configuration not stated),> 100 µM,
N#CC(c1ccc(Cl)cc1)c1cccc(C(C#N)c2ccc(Cl)cc2)n1 (configuration not stated),> 100 µM,
CCCCCN(CCCCC)CCCNc1c2c(nc3ccc(Cl)cc13)CCCC2,7.37 µM,2.58 µM
O=C1/C(=C/c2ccccc2)CN(C(=O)C(Cl)(Cl)Cl)C/C1=C\c1ccccc1,3 µM,
Cn1c2ccccc2c2c(Nc3ccccc3)c3ccccc3nc21,71.8 µM,22.7 µM
Cc1ccc(NC2=C(Cl)C(=O)N(Cc3ccccc3)C2=O)cc1O,84.6 µM,18.7 µM

# Tested on: OVCAR-8 ovarian
# Test: growth of human tumour cells (NCI), 48 h
Structure (SMILES),TGI,GI50
CCN(CCO)CC1CCCC2CCCCC21 (configuration not stated),> 100 µM,
CC[C@@]1(O)C[C@H](OC2CC(N(C)C)C(O)C(C)O2)c2c(O)c3c(c(O)c2[C@H]1OC1CC(N(C)C)C(O)C(C)O1)C(=O)c1cccc(O)c1C3=O (some centres not stated),0.4 µM and 1.1 µM,< 0.01 µM
COC1(OC)CCC2C1C1CCC(OC)(OC)C21 (configuration not stated),> 50 µM,
NNC(=O)Nc1cccnc1,> 100 µM,
CC/C=C\CCC/C=C1/C(=O)C=C[C@@H]1C/C=C\CCCC(=O)OC,12.8 µM,3.71 µM
COc1ccc(-c2nc3sccn3c2/C(N)=N/C(=N)N)cc1OC,> 100 µM,43.8 µM
CCCCCCCCCCCOc1ccc(C(=O)C(=O)c2ccc(OCCCCCCCCCCC)c(OCCCCCCCCCCC)c2)cc1OCCCCCCCCCCC,> 100 µM,
Cn1cnc([N+](=O)[O-])c1Sc1nnc(-c2cccnc2)n1C,59.7 µM,
CCOC(=O)C1=C(C)NC(=S)NC1c1ccccc1 (configuration not stated),> 100 µM,
COC1=CC(=O)c2nc(-c3ccncc3)[nH]c2C1=O,> 100 µM,> 100 µM
O=C(/C=C/c1ccccc1)NC1C=Nc2ccc(Cl)cc2NC1=O (configuration not stated),> 100 µM,
COC1CCC2C(NS(=O)(=O)c3ccc(C)cc3)CCCC2O1 (configuration not stated) (tested in a mixture with another compound),> 34.5 µM,
CC(C)C/C(CC(=O)CCC(=O)Nc1ccccc1[N+](=O)[O-])=N\NC(=O)c1cc2ccccc2cc1O,95.8 µM,
O=C1/C(=C/c2cccc([N+](=O)[O-])c2)COc2ccc(O)cc21,9.52 µM,2.67 µM
O=C(O)c1ccccc1[Se][Se]c1ccccc1C(=O)O,> 100 µM,
COc1cc(CNc2cnc3cc(N)cc(N)c3n2)cc(OC)c1,57.6 µM,22.6 µM
CCCCC(=O)OCC(=O)[C@]1(O)Cc2c(O)c3c(c(O)c2[C@@H](OC2CC(NC(=O)C(F)(F)F)C(O)C(C)O2)C1)C(=O)c1c(OC)cccc1C3=O (some centres not stated),> 39.6 µM,

Structure (SMILES),TGI,GI50
O=C(O)CCc1coc2ccc(O)cc12,> 100 µM,
C[C@]12CC[C@H](O)CC1=CC[C@@H]1C2CC[C@]2(C)C(=O)N(N)C(=O)CC12 (some centres not stated),> 100 µM,
COC(CN1C(=O)c2cccc3cccc(c23)C1=O)OC,> 100 µM,
Cc1nc2ccccc2c(=O)n1-c1ccccc1I,> 100 µM,
CC(=O)NNc1nc(C)c(C(=O)NNC(=O)C(=O)Nc2ccc(Cl)cc2)s1,> 100 µM,
Cc1ccc(C(=O)/C(=C/c2ccc([N+](=O)[O-])cc2)SCc2ccc(Cl)cc2)cc1,5.64 µM,1.86 µM
O=C(N/C(=C\c1ccc(/C=C(\NC(=O)c2ccccc2)c2nc3cc([N+](=O)[O-])ccc3[nH]2)cc1)c1nc2cc([N+](=O)[O-])ccc2[nH]1)c1ccccc1,> 100 µM,
CC1=C(C(=O)NCc2ccccc2)C(/C=C/c2ccccc2)C(C(=O)NCc2ccccc2)=C(C)N1,> 100 µM,
CC1(c2ccc(F)cc2)C(C#N)C(=O)NC(=O)C1C#N (configuration not stated),> 100 µM,
Cc1cc(C)nc(NS(=O)(=O)c2ccc(NC(=O)c3ccc(Cl)c4c(Nc5ccc(S(=O)(=O)Nc6nc(C)cc(C)n6)cc5)c5ccccc5nc34)cc2)n1,> 100 µM,
COc1ccc2c3c1C(=O)CCCC3CO2 (configuration not stated),> 100 µM,
N#CC(c1ccc(Cl)cc1)c1cccc(C(C#N)c2ccc(Cl)cc2)n1 (configuration not stated),> 100 µM,
CCCCCN(CCCCC)CCCNc1c2c(nc3ccc(Cl)cc13)CCCC2,8.88 µM,2.9 µM
O=C1/C(=C/c2ccccc2)CN(C(=O)C(Cl)(Cl)Cl)C/C1=C\c1ccccc1,3.1 µM,
Cn1c2ccccc2c2c(Nc3ccccc3)c3ccccc3nc21,> 100 µM,27.3 µM
O=S1(=O)c2ccccc2NC(c2ccc3ccccc3c2)CC1c1ccccc1F (configuration not stated),> 100 µM,
Cc1ccc(NC2=C(Cl)C(=O)N(Cc3ccccc3)C2=O)cc1O,> 100 µM,26.1 µM

# Tested on: SW-620 colon
# Test: growth of human tumour cells (NCI), 48 h
Structure (SMILES),TGI,GI50
CCN(CCO)CC1CCCC2CCCCC21 (configuration not stated),> 100 µM,
CC[C@@]1(O)C[C@H](OC2CC(N(C)C)C(O)C(C)O2)c2c(O)c3c(c(O)c2[C@H]1OC1CC(N(C)C)C(O)C(C)O1)C(=O)c1cccc(O)c1C3=O (some centres not stated),0.0149 µM,< 0.01 µM
COC1(OC)CCC2C1C1CCC(OC)(OC)C21 (configuration not stated),> 50 µM,
NNC(=O)Nc1cccnc1,> 100 µM,
CC/C=C\CCC/C=C1/C(=O)C=C[C@@H]1C/C=C\CCCC(=O)OC,18.7 µM,4.16 µM
COc1ccc(-c2nc3sccn3c2/C(N)=N/C(=N)N)cc1OC,72.1 µM,28.4 µM
CCCCCCCCCCCOc1ccc(C(=O)C(=O)c2ccc(OCCCCCCCCCCC)c(OCCCCCCCCCCC)c2)cc1OCCCCCCCCCCC,> 100 µM,
Cn1cnc([N+](=O)[O-])c1Sc1nnc(-c2cccnc2)n1C,31.3 µM,
COC1=CC(=O)c2nc(-c3ccncc3)[nH]c2C1=O,> 100 µM,> 100 µM
O=C(/C=C/c1ccccc1)NC1C=Nc2ccc(Cl)cc2NC1=O (configuration not stated),24.2 µM,
COC1CCC2C(NS(=O)(=O)c3ccc(C)cc3)CCCC2O1 (configuration not stated) (tested in a mixture with another compound),> 34.5 µM,
CC(C)C/C(CC(=O)CCC(=O)Nc1ccccc1[N+](=O)[O-])=N\NC(=O)c1cc2ccccc2cc1O,> 100 µM,
O=C1/C(=C/c2cccc([N+](=O)[O-])c2)COc2ccc(O)cc21,2.08 µM,0.521 µM
O=C(O)c1ccccc1[Se][Se]c1ccccc1C(=O)O,> 100 µM,
COc1cc(CNc2cnc3cc(N)cc(N)c3n2)cc(OC)c1,64.2 µM,24.6 µM
CCCCC(=O)OCC(=O)[C@]1(O)Cc2c(O)c3c(c(O)c2[C@@H](OC2CC(NC(=O)C(F)(F)F)C(O)C(C)O2)C1)C(=O)c1c(OC)cccc1C3=O (some centres not stated),> 52.4 µM,
